Assay results: patent US5962502A, “Polyamidic acid derivatives with antigastrin activity, a method for their preparation, and their pharmaceutical use” (priority 1993, dated 1999)
Values joined by “and” are separate entries in the source; they are usually repeats but may differ in a detail not shown here. Identical values can stand only once.

Legend:
[1] = target: T1, central CCK-B receptor (Cavia porcellus, UniProt H0VZC5); assay: Inhibition of the binding of [3-H][N-methyl-N-leucine]CCK-8 to guinea-pig cortical membranes; conditions: for IC50: 150 minutes at 25° C.
T1 construct: Cerebral cortices of male white guinea-pigs were thus used; from tissue; host or cells: cerebral cortex membranes of male white guinea-pigs
T1 sequence (H0VZC5 1-426): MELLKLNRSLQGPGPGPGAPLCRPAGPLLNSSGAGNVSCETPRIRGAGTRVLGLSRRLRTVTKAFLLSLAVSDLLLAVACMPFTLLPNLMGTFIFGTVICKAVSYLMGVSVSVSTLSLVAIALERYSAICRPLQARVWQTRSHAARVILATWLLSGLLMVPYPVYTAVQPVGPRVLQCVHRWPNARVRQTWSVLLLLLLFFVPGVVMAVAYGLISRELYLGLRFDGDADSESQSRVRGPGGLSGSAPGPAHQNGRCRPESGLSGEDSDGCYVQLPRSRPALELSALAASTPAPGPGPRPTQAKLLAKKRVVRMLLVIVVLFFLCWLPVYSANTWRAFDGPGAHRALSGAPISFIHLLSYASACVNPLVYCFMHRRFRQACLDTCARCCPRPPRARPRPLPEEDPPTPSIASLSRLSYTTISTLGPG
Method: The ability of the compounds of the invention to interact with the central CCK-B receptor was evaluated with the use of non-sulphated [3-H] […] 225 (3) (1990), 1278-1286].
Cerebral cortices of male white guinea-pigs were thus used, according to the method mentioned above, so as to obtain a membrane content corresponding to about 300 mcg of proteins/ml. The membranes were incubated together with the radioactive tracer and the compounds under test for 150 minutes at 25° C. After the supernatant had been discarded, the radioactivity associated with the pellet was determined with a liquid scintillator. The specific binding was determined as the difference between the binding in the absence and in the presence of 5.10^-6 M CCK-8.

[2] = test system: acid secretion induced by pentagastrin; assay: Acid secretion induced by pentagastrin in the anaesthetized rat; type: in vivo; conditions: for ED50: iv, 1 h, I.V. bolus, pentagastrin 30 mcg/kg/h, read-out: Activity (ID50), inhibition of the acid secretion induced by pentagastrin
Method: The activity of the compounds of the invention against gastric secretion performed by means of a mechanism with an antigastrin effect, was examined in vivo in anaesthetized rats with the use of male animals weighing about 200 g. Gastric secretion was stimulated with pentagastrin and Lai's method [Gut 5, (1964), 327-341 ] was used, with slight modification.
After tracheotomy, the oesophagus and duodenum were cannulated. A tepid solution (37° C.) of 0.25 mM NaOH was perfused and was passed through the stomach by means of a peristaltic pump at a constant flow-rate of 1 ml/minute. After stabilization for 20 minutes, the stimulant, dissolved in a physiological solution, was perfused for 120 minutes at a dose of 30 mcg/kg/h, in a volume of 0.95 ml/hour. After perfusion for 60 minutes (the basal stimulation), the product under test was administered intravenously (I.V.) as a bolus and perfusion of the stimulant was continued for a further 60 minutes. The acid secretion was recorded continuously as a function of time.
The activity of the product was evaluated as the percentage reduction of secreted acidity after the administration of the product, in comparison with the basal acidity measured during the first 60 minutes of collection in the presence of pentagastrin alone.
The antagonistic compounds tested were administered in various doses so that an ID50, that is, the dose (in mg/kg I.V.) which could inhibit the effect of pentagastrin by 50%, could be calculated.

[3] = target: T2, gastrin receptors or type-B cholecystokinin (CCK-B) receptors (Oryctolagus cuniculus, UniProt P46627); assay: Inhibition of the gastrin-induced increase of cytosolic calcium in rabbit gastric mucous-membrane cells (Fura 2); type: cell-based; conditions: for Ratio IC50 Binding cortex / IC50 (gastric mucous cells): binding values taken from Table 3; for IC50, inhibition of the increase of cytosolic calcium: rabbit gastric mucous cells enriched in parietal cells, gastrin 5×10^-8; for CCK-B-antagonistic activity IC50 (II): data taken from Table 4 (rabbit gastric mucous cells), reprinted in Table 6
T2 construct: Rabbit gastric mucous-membrane cells were prepared by conventional techniques; endogenous in cells; host or cells: freshly isolated rabbit gastric mucosal cells, enriched by elutriation to about 70% parietal cells
T2 sequence (P46627 1-452): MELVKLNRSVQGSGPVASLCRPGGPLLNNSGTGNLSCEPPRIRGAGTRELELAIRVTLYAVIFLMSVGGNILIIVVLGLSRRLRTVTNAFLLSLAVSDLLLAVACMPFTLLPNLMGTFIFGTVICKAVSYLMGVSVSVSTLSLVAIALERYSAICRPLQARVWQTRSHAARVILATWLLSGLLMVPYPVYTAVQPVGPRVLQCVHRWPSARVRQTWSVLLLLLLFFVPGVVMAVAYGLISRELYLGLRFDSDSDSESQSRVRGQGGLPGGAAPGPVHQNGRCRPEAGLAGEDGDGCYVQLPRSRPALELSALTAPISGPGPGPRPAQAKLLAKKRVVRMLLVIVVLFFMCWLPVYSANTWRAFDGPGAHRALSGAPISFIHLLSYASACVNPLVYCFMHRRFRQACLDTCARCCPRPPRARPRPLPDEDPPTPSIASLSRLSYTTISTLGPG
Excerpt: The parietal cells of the gastric mucous membrane are responsible for the secretion of HCl. They have specific membrane receptors which can be activated by gastrin and which have been defined as gastrin receptors or type-B cholecystokinin (CCK-B) receptors. Since it has been observed that the activation of the CCK-B receptors by gastrin leads to an increase in the cytosolic levels of calcium ions, a technique involving the measurement of the increase in intracellular calcium induced by gastrin in the presence and in the absence of the compounds of the invention was used as an index of the antigastrin activity of the compounds. Rabbit gastric mucous-membrane cells were prepared by conventional techniques with the use of collagenase and pronase as digestive enzymes. The cellular preparation obtained by the enzymatic digestion was composed of parietal cells, zymogen cells and mucous-membrane cells. […] The cells were then washed and resuspended in a saline solution buffered with HEPES containing, in mM: […] Each measurement was carried out on cells in suspension (0.8×10^6 /ml) at a thermostatically-controlled temperature of 37° C. and with constant magnetic stirring. The fluorescence was recorded with the use of a spectrofluorometer. The operative wavelengths were 340/380 nm for excitation and 505 nm for emission. […] Biol. Chem. 260 (1985), 3440]. […] The results thus obtained for some compounds of the invention are given in Table 4, which also gives an index derived from the ratio between the peripheral antigastrin activity just described and the displacement activity found in the test on binding to the guinea-pig cortex receptors described above.

[4] = target: T3, CCK-A (Cavia porcellus, UniProt Q63931); assay: Anti-CCK-A activity on guinea-pig gall bladder stimulated in vitro by CCK-8; conditions: for Ratio I/II (CCK-A IC50 / CCK-B IC50): gall bladder IC50 over gastric mucous cells IC50; for IC50: guinea-pig gall bladder in vitro, CCK-8 10 ng/ml, read-out: CCK-A-antagonistic activity IC50 (I)
T3 construct: A longitudinal strip of guinea-pig gall-bladder was put in a bath for isolated organs; from tissue; host or cells: guinea-pig gall bladder longitudinal strip
T3 sequence (Q63931 1-430): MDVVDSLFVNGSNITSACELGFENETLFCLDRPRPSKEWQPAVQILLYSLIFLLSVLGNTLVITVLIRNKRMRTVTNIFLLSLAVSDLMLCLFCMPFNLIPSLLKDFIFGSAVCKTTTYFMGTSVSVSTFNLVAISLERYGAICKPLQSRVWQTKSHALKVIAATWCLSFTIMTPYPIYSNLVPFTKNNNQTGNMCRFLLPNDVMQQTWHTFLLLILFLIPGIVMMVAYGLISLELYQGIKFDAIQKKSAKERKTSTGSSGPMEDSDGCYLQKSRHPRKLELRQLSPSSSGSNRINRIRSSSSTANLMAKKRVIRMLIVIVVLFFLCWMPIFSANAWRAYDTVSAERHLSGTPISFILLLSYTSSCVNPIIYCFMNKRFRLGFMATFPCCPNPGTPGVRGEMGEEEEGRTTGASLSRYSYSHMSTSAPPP
Method: The experimental model used was guinea-pig gall bladder stimulated in vitro by CCK-8, with the use of lorglumide as the reference standard. A longitudinal strip of guinea-pig gall-bladder was put in a bath for isolated organs in the presence of Krebs buffer at a temperature of 32° C., with continuous oxygenation with an oxygen-CO2 mixture (95-[…]). The isometric contractions were detected by means of a force transducer and recorded.

| Structure (SMILES) | inhibition of the binding of [N-methyl-N-leucine]CCK-8, result in words ([1]; guinea-pig cortical membranes) | IC50 ([1]; guinea-pig cortical membranes) | ED50 [2] | Ratio IC50 Binding cortex / IC50 (gastric mucous cells) [3] | IC50, inhibition of the increase of cytosolic calcium [3] | antigastrin activity relative to the diastereoisomer at the carbon atom (**) ([2]; pentagastrin-induced acid secretion) | Ratio I/II (CCK-A IC50 / CCK-B IC50) [4] | IC50 [4] | CCK-B-antagonistic activity IC50 (II) [3] | times more active than the corresponding diastereoisomer at the carbon atom (**) ([1]; binding, guinea-pig cortex) |
| --- | --- | --- | --- | --- | --- | --- | --- | --- | --- | --- |
| CN(C(=O)CC[C@@H](NC(=O)c1cc(Cl)cc(Cl)c1)C(=O)N1CCC2(CCCC2)CC1)[C@H](Cc1ccccc1)C(=O)O [Compound 12] | potent inhibitors | 100 nM | 13.6 mg/kg and 24.2 µmol/kg | 1.7 | 60 nM | – | – | – | – | – |
| O=C(O)C[C@H](Cc1ccccc1)NC(=O)CC[C@@H](NC(=O)c1cc(Cl)cc(Cl)c1)C(=O)N1CCC2(CCCC2)CC1 [Compound 14] | – | 340 nM | 9.7 mg/kg and 16.1 µmol/kg | 17.0 | 20 nM | about 1.5 times | – | – | – | – |
| O=C(CC[C@@H](NC(=O)c1cc(Cl)cc(Cl)c1)C(=O)N1CCC2(CCCC2)CC1)N[C@H](Cc1ccc2ccccc2c1)C(=O)O [Compound 24] | – | 130 nM | – | 4.3 | 30 nM | – | 1527 | 45800 nM | 30 nM | – |
| O=C(CC[C@@H](NC(=O)c1cc(Cl)cc(Cl)c1)C(=O)N1CCC2(CCCC2)CC1)N[C@H](Cc1ccccn1)C(=O)O [Compound 27] | – | 150 nM | – | 0.6 | 230 nM | – | 14.8 | 3400 nM | 230 nM | – |
| O=C(CC[C@@H](NC(=O)c1cc(Cl)cc(Cl)c1)C(=O)N1CCC2(CCCC2)CC1)N[C@H](CC1CCCCC1)C(=O)O [Compound 28] | – | 650 nM | – | 6.5 | 100 nM | – | – | – | – | – |
| CC1(C)CCC(NC(=O)[C@H](CCC(=O)O)NC(=O)CC[C@@H](NC(=O)c2cc(Cl)cc(Cl)c2)C(=O)N2CCC3(CCCC3)CC2)CC1 [Compound 34] | – | 730 nM | – | 10.4 | 70 nM | – | – | – | – | about twice |
| CC1(C)CCC(NC(=O)[C@@H](CCC(=O)O)NC(=O)CC[C@@H](NC(=O)c2cc(Cl)cc(Cl)c2)C(=O)N2CCC3(CCCC3)CC2)CC1 [Compound 35] | – | 1700 nM | – | 14.2 | 120 nM | – | – | – | – | – |
| CN(Cc1ccccc1)C(=O)[C@@H](CCC(=O)O)NC(=O)CC[C@@H](NC(=O)c1cc(Cl)cc(Cl)c1)C(=O)N1CCC2(CCCC2)CC1 [Compound 38] | – | 180 nM | 7 mg/kg and 10.4 µmol/kg | 6.0 | 30 nM | – | – | – | – | – |
| O=C(C[C@@H](NC(=O)c1cc(Cl)cc(Cl)c1)C(=O)N1CCC2(CCCC2)CC1)N[C@H](Cc1c[nH]c2ccccc12)C(=O)O [Compound 43] | – | 1030 nM | – | 14.7 | 70 nM | – | – | – | – | – |
| O=C(CC[C@@H](NC(=O)c1cc(Cl)cc(Cl)c1)C(=O)N1CCC2(CCCC2)CC1)Nc1ccc(C(=O)O)cc1 [Compound 47] | – | 1720 nM | – | 4.5 | 380 nM | – | – | – | – | – |
| Cc1cc(C(=O)O)ccc1NC(=O)CC[C@@H](NC(=O)c1cc(Cl)cc(Cl)c1)C(=O)N1CCC2(CCCC2)CC1 [Compound 52] | – | 2770 nM | – | 1.2 | 2330 nM | – | – | – | – | – |
| CC(C)(C)CCNC(=O)[C@@H](CCC(=O)Nc1ccc(C(=O)O)cc1)NC(=O)c1cc(Cl)cc(Cl)c1 [Compound 53] | – | 6400 nM | – | – | IN (IN (inactive) when the IC50 is >3.10^-5 M) | – | – | – | – | – |
| CCCCCN(CCCCC)C(=O)C(CCC(=O)O)NC(=O)c1ccc(Cl)c(Cl)c1 (stereo not drawn) [R-lorglumide, reference compound] | – | – | – | – | – | – | – | 50 nM | – | – |
